The source of these data is EP3403652A1, “PREVENTION AND TREATMENT OF FIBROBLAST GROWTH FACTOR 23 (FGF23)-ASSOCIATED DISORDERS INCLUDING CHRONIC KIDNEY DISEASE (CKD)” (Veterinärmedizinische Universität Wien, priority 2017, dated 2018).

The subject of assay [1] is renal distal tubules. The experiment in a line: Intracellular Na+ imaging by 2-photon microscopy in SBFI-loaded live kidney slices ex vivo. The assay is classed as cell-based, mice. The conditions noted are these: for rFGF23-induced increase in intracellular Na^+ fluorescence (distal tubular Na^+ uptake): co-treatment with 200 ng/ml rFGF23, 2 h, iFGFR pan 120 nM; for decrease of SFBI fluorescence intensity in distal tubules: rFGF23-treated WT kidney slices, CTZ 10 µM. As for the experimental part:
(§1) The preparation of kidney slices for ex vivo experiments was performed as described in Andrukhova O et al. (EMBO J., 2014. 33, 229-246). Longitudinal 200-µm-thick live slices from freshly isolated kidneys of 3-month-old male WT and Klotho/VDR mice were prepared using a Leica VT1000 Vibratome (Leica Microsystems), and were used for ex vivo treatment with various substances as described below.
(§2) Longitudinal 200-µm-thick live slices of freshly isolated kidneys were prepared using a Leica VT1000 Vibratome (Leica Microsystems). For Na^+ imaging, the kidney slices of WT and Klotho/VDR mice were incubated for 60 min at 37°C with 2 µM of the sodium-sensitive dye SBFI (Molecular Probes), diluted in DMSO (Merck Millipore International) and 20% Pluronic (Merck Millipore International). For Ca^2+ imaging, the kidney slices were incubated for 30 min at 37°C with 2 µM of the calcium-sensitive dye Fluo-4 (Molecular Probes), diluted in DMSO and 20% Pluronic. Thereafter, the slices were washed two times for 20 min each in 0.1M PBS, and were subsequently incubated in vitro with vehicle (PBS), rFGF23 R176/179Q [(100 or 200 ng/ml) kindly provided by Amgen Inc., Thousand Oaks, CA, USA], PD173074 (Sigma-Aldrich) (10 nM for inhibiting FGFR1 and 25 nM for inhibiting FGFR1 and 3), pan FGFR inhibitor [(120 nM) FIIN1 hydrochloride, Tocris Bioscience, Bristol, UK)], WNK signalling inhibitor Closantel (30 ng/mL, generous gift of Dario R. Alessi) alone or combined at 37°C, 5% CO2 / 95% air humidified atmosphere for 2 h. […] For visualization of intracellular Na^+ and Ca^2+ content, SBFI or Fluo-4 were excited by a Ti:sapphire laser (Chameleon, Coherent Inc.) at 820 nm. Images (512 × 512 pixels) were acquired every 30 sec at a depth of 60 - 80 µm. Fluorescence images were analyzed using Image J software. The whole epithelial layer of the distal tubules was selected by manually drawing the region of interest (ROI) to quantify intracellular Na^+ and Ca^2+ levels. Fluorescence intensity was quantified in 4-9 ROIs per image, and the ratio between the fluorescence intensity and the ROI area was calculated for each tubule. This ratio was used for all subsequent calculations.
(§3) To gain more insight into the functional role of the rFGF23-induced increase in distal renal tubular ion channel expression and the FGF receptors involved, we performed intracellular Ca^2+ and Na^+ imaging by 2-photon microscopy in Fluo-4- or SFBI-loaded and subsequently rFGF23-treated (100 or 200 ng/ml for 2 h), 200-µm-thick renal slices prepared from WT and Klotho/VDR mice.
(§4) In this example it was assessed whether the Klotho-independent FGF23 signalling pathway is mediated through FGFR3 and/or 4, given that FGFR2 expression was low in distal renal tubules (Figure 12A). To dissect between the latter receptors, Klotho/VDR kidney slices were treated with rFGF23 alone or in combination with an FGFR1/FGFR3 inhibitor and the WNK signalling inhibitor closantel.

In a further assay the target is SPAK (Homo sapiens, UniProt Q9UEW8). Conditions: dose-dependent manner; literature (Yamada et al. 2016; Mori et al. 2013); cited from earlier work.
Another assay addresses WNK-SPAK binding (Homo sapiens, UniProt Q9UEW8). The conditions noted are these: literature (Mori et al. 2013); cited from earlier work.
A further assay deals with OSR1. The conditions noted are these: dose-dependent manner; literature (Yamada et al. 2016); cited from earlier work.
For assay [2], the system named is renal distal tubules. The experiment in a line: Intracellular Ca2+ imaging by 2-photon microscopy in Fluo-4-loaded live kidney slices ex vivo. The class given is cell-based, mice. Conditions: co-treatment with 200 ng/ml rFGF23, 2 h, iFGFR pan 120 nM. As for the experimental part: as §1, §2, §3, §4
Another assay concerns the target TRPV5 (Homo sapiens, UniProt Q9NQA5). Conditions: 1 µM; literature (Nilius et al. 2001); cited from earlier work.
The target of another assay is T1, TRPV6 (Homo sapiens, UniProt Q9H1D0).
T1 sequence (Q9H1D0 1-765): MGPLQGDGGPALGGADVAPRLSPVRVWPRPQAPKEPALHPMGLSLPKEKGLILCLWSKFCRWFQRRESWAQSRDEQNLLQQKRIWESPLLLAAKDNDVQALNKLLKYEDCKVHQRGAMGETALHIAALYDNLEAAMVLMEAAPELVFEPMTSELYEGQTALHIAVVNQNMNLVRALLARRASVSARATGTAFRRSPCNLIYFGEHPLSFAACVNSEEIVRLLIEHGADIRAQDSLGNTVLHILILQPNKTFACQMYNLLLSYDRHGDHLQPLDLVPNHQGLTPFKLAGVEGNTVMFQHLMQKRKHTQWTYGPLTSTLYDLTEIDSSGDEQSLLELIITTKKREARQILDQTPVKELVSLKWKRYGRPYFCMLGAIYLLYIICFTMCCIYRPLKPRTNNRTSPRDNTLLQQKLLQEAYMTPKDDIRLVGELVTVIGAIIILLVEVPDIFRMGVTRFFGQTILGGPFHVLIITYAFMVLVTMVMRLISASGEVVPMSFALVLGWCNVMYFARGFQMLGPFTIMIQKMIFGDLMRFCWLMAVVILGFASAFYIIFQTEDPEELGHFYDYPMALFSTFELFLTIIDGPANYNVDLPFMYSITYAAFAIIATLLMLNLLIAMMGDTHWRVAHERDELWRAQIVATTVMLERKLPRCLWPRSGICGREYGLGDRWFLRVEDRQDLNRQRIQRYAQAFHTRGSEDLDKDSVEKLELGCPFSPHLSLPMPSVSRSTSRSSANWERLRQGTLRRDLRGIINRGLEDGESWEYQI
The conditions noted are these: 1 µM; literature (Nilius et al. 2001); cited from earlier work.

The subject of a further assay is 5/6 Nx C57BL/6 mice. The experiment in a line: 5/6 nephrectomy with angiotensin II infusion via osmotic mini-pumps. The class given is in vivo. Conditions: AngII- vs. vehicle-treated 5/6-Nx mice, 4 and 8 weeks postsurgery. As for the experimental part:
The 5/6 nephrectomy (5/6 Nx) was performed in two stages (Leelahavanichkul A et al., Kidney Int. 78, 2010. 1136-1153) under isoflurane anesthesia (Fig. 1A). Pain was managed by s.c. injections of buprenorphine, metamizol and meloxicam. Additionally, the animals were treated for 3 days postsurgery with the analgesic piritramid via the drinking water, starting 6 h postsurgery. At the first stage (wk -1), the left kidney was decapsulated to avoid ureter and adrenal damage, and the upper and lower poles were partially resected via a left flank incision. Bleeding was controlled by microfibrillar collagen hemostasis (Avitene, Davol, Cranston, RI). The upper and lower poles were weighed. One week later, the entire right kidney was removed via a right flank incision and weighed. Animals with insufficient kidney resection as determined by a ratio of < 0.55 for the removed left kidney weight to the removed right kidney weight were euthanized. In the Sham surgery control mice, a left flank incision was performed at step 1, both poles of kidney were identified, then the flank incision was closed; a subsequent right flank incision was performed at step 2; the right renal artery was identified, then the flank incision was closed. After each flank incision, muscles and skin were repositioned and sewed. Mortality was tracked throughout the study. Necropsy was not performed on animals that died early.
Angiotensin II (Ang II) 0.75 µg/kg/min (Sigma) in physiological saline or vehicle was infused by subcutaneous osmotic mini-pumps (Alzet model 1004, Cupertino, CA) (Leelahavanichkul A et al., Kidney Int. 78, 2010. 1136-1153). The osmotic minipumps were inserted subcutaneously at the back under isoflurane anesthesia at 5 days after right NX or Sham surgery (Fig. 1A).
In order to test susceptibility of C57BL/6 mice to 5/6 nephrectomy (5/6-Nx)- and angiotensin II (AngII) infusion-induced CKD, 5/6-Nx was performed and osmotic minipumps continuously releasing vehicle or AngII were thereafter implanted into male wild-type (WT) C57Bl/6 mice, which were then monitored over 8 weeks after 5/6-Nx. All mice were maintained on rescue diet.

Setting [3] is: Klotho/VDR kidney slices, closantel 30 ng/mL, BF 15 µM, PD173074 10 nM (iFGFR1) or 25 nM (FGFR1/3).
Where [4] appears, read: Klotho/VDR kidney slices, ruthenium red 10 µM, closantel 30 ng/mL, PD173074 10 nM (iFGFR1) or 25 nM (FGFR1/3).
[5] abbreviates: WT kidney slices, ruthenium red 1 µM, iFGFR1 PD173074 10 nM.
Where [6] appears, read: WT kidney slices, iFGFR1 PD173074 10 nM.

Chain of TRPV5 (Q9NQA5 whole entry, species assumed): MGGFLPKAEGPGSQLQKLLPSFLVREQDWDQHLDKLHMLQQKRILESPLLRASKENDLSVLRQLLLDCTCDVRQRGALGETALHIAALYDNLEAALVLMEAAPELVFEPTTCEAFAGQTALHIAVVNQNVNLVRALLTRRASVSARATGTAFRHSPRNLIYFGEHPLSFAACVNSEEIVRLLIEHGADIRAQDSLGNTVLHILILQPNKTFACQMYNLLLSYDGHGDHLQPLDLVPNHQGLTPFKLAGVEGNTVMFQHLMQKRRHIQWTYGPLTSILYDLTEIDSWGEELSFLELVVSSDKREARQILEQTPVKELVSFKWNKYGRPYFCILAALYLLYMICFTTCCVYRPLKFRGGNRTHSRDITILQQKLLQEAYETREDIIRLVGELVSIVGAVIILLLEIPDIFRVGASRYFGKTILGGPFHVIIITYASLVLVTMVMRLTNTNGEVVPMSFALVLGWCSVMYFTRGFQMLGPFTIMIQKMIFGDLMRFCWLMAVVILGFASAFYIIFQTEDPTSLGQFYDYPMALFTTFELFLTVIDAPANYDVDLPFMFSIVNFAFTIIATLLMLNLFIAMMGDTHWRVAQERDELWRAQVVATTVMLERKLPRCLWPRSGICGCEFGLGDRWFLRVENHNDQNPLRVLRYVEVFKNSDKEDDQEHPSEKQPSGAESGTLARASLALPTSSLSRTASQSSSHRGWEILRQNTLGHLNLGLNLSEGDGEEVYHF

In the case of `CCCCNc1cc(C(=O)O)cc(S(N)(=O)=O)c1Oc1ccccc1` [BF, bumetanide], in the assay with renal distal tubules [1] (setting [3]), the “rFGF23-induced increase in intracellular Na^+ fluorescence (distal tubular Na^+ uptake)” value is listed as “inhibited”. In addition, the “decrease of SFBI fluorescence intensity in distal tubules” value with renal distal tubules [1] (BF 15 µM) is given as “approximately 50%”.
On to `NS(=O)(=O)c1cc2c(cc1Cl)N=CNS2(=O)=O` [CTZ, chlorothiazide], for which the “decrease of SFBI fluorescence intensity in distal tubules” value in the assay on renal distal tubules [1] (BF 15 µM) was “approximately 50%”.
As to `CCOc1ccc2nc3cc(NCc4ccco4)ccc3c(N)c2c1` [STOCK2S-26016, 7-Ethoxy-N3-(2-furanylmethyl)-3,9-acridinediamine], the SPAK phosphorylation result at SPAK is on record as “preventing”. Also, the WNK-SPAK binding entry at WNK-SPAK binding was “preventing”.
Take `CC(C)(C)NC(=O)c1cncn1C1CCN(c2ccc(-c3nnc(C(F)(F)F)o3)cn2)CC1` [WNK463, N-tert-butyl-3-[1-[5-[5-(trifluoromethyl)-1,3,4-oxadiazol-2-yl]pyridin-2-yl]piperidin-4-yl]imidazole-4-carboxamide]: the SPAK phosphorylation entry at SPAK was “decreases”. Moreover, in the assay with OSR1, the OSR1 phosphorylation entry is given as “decreases”.
For the molecule `CCN(CC)CCCCNc1ncc2cc(-c3cc(OC)cc(OC)c3)c(NC(=O)NC(C)(C)C)nc2n1` [iFGFR1, PD173074], the “rFGF23-induced increase in intracellular Ca^2+ fluorescence (distal tubular Ca^2+ uptake)” value is reported as “no effect” in the assay with renal distal tubules [2] (setting [4]); “partially blocked” with renal distal tubules [2] (Klotho/VDR kidney slices, ruthenium red 10 µM, closantel 30 ng/mL, PD173074 10 nM (iFGFR1) or 25 nM (FGFR1/3), listed as FGFR1/3 inhibitor); “largely blocked” in the assay on renal distal tubules [2] (setting [5]). For the same molecule, the “rFGF23-induced increase in intracellular Na^+ fluorescence (distal tubular Na^+ uptake)” value with renal distal tubules [1] (setting [3]) was “no effect”; in the assay with renal distal tubules [1] (Klotho/VDR kidney slices, closantel 30 ng/mL, BF 15 µM, PD173074 10 nM (iFGFR1) or 25 nM (FGFR1/3), listed as FGFR1/3 inhibitor) it was “completely blocked”; in the assay on renal distal tubules [1] (setting [6]), “largely blocked”.
`C=CC(=O)Nc1cccc(CN2C(=O)N(c3c(Cl)c(OC)cc(OC)c3Cl)Cc3cnc(NCCCCN(CC)CC)nc32)c1.Cl` [iFGFR pan, FIIN1 hydrochloride]: the “rFGF23-induced increase in intracellular Ca^2+ fluorescence (distal tubular Ca^2+ uptake)” value in the assay on renal distal tubules [2] (setting [4]) and in the assay with renal distal tubules [2] (setting [5]) was “completely blocked” each time. Also, the “rFGF23-induced increase in intracellular Na^+ fluorescence (distal tubular Na^+ uptake)” value in the assay with renal distal tubules [1] (setting [3]) and in the assay with renal distal tubules [1] (setting [6]) was “completely blocked” throughout.
For `N.N.N.N.N.N.N.N.N.N.N.N.N.N.[Cl-].[Cl-].[Cl-].[Cl-].[Cl-].[Cl-].[O-2].[O-2].[Ru+3].[Ru+3].[Ru+4]` [ruthenium red], the figures for the “rFGF23-induced increase in intracellular Ca^2+ fluorescence (distal tubular Ca^2+ uptake)” value with renal distal tubules [2] (setting [4]) and with renal distal tubules [2] (setting [5]) were “antagonize” and “reversed”, respectively. Further, at TRPV5, the TRPV5 channel function entry is “block”. Further, on TRPV6, the TRPV6 channel function result is “not”.
Turning to “Angiotensin II (DRVYIHPF; Angiotensin-2; UniProt P01019 25-32, looked up) [AngII, Angiotensin II (Sigma) infused by subcutaneous osmotic mini-pumps]”, the GFR result in the assay with 5/6 Nx C57BL/6 mice (0.75 µg/kg/min s.c. infusion) is “no significant differences”. Moreover, in the assay on 5/6 Nx C57BL/6 mice, the azotemia entry was “no significant differences”, the “mean arterial pressure measured by arterial catheterization” value is “no significant differences” and the proteinuria result was “no significant differences”.
